Measurements reported in ChEMBL document CHEMBL2380246, “Structure-activity relationships of hybrid annonaceous acetogenins: powerful growth inhibitory effects of their connecting groups between heterocycle and hydrophobic carbon chain bearing THF ring on human cancer cell lines” (2013).

Experiments:
Format in all cases: functional
A549 = test: Growth inhibition of human A549 cells after 48 hrs by sulforhodamine B assay; conditions: A549, 48 h
SF-268 = test: Growth inhibition of human SF268 cells after 48 hrs by sulforhodamine B assay; conditions: SF-268, 48 h
NCI-H226 = test: Growth inhibition of human NCI-H226 cells after 48 hrs by sulforhodamine B assay; conditions: NCI-H226, 48 h
[1] = Growth inhibition of human MKN1 cells after 48 hrs by sulforhodamine B assay; conditions: MKN-1, 48 h
U-251 = test: Growth inhibition of human U251 cells after 48 hrs by sulforhodamine B assay; conditions: U-251, 48 h
SNB-75 = test: Growth inhibition of human SNB75 cells after 48 hrs by sulforhodamine B assay; conditions: SNB-75, 48 h
ACHN = test: Growth inhibition of human ACHN cells after 48 hrs by sulforhodamine B assay
NCI-H460 = test: Growth inhibition of human NCI-H460 cells after 48 hrs by sulforhodamine B assay; conditions: NCI-H460, 48 h
DMS-273 = test: Growth inhibition of human DMS273 cells after 48 hrs by sulforhodamine B assay; conditions: DMS-273, 48 h
[2] = Growth inhibition of human HBC4 cells after 48 hrs by sulforhodamine B assay; conditions: HBC4, 48 h
OVCAR-8 = test: Growth inhibition of human OVCAR8 cells after 48 hrs by sulforhodamine B assay; conditions: OVCAR-8, 48 h
SF-539 = test: Growth inhibition of human SF539 cells after 48 hrs by sulforhodamine B assay; conditions: SF-539, 48 h
[3] = Growth inhibition of human HCC2998 cells after 48 hrs by sulforhodamine B assay; conditions: HCC 2998, 48 h
OVCAR-3 = test: Growth inhibition of human OVCAR3 cells after 48 hrs by sulforhodamine B assay; conditions: OVCAR-3, 48 h
[4] = Growth inhibition of human HBC5 cells after 48 hrs by sulforhodamine B assay; conditions: HBC5, 48 h
PC-3 = test: Growth inhibition of human PC3 cells after 48 hrs by sulforhodamine B assay; conditions: PC-3, 48 h
SF-295 = test: Growth inhibition of human SF295 cells after 48 hrs by sulforhodamine B assay; conditions: SF-295, 48 h
SNB-78 = test: Growth inhibition of human SNB78 cells after 48 hrs by sulforhodamine B assay; conditions: SNB-78, 48 h
MDA-MB-231 = test: Growth inhibition of human MDA-MB-231 cells after 48 hrs by sulforhodamine B assay; conditions: MDA-MB-231, 48 h
OVCAR-4 = test: Growth inhibition of human OVCAR4 cells after 48 hrs by sulforhodamine B assay; conditions: OVCAR-4, 48 h
NCI-H522 = test: Growth inhibition of human NCI-H522 cells after 48 hrs by sulforhodamine B assay; conditions: NCI-H522, 48 h
MKN-74 = test: Growth inhibition of human MKN74 cells after 48 hrs by sulforhodamine B assay; conditions: MKN-74, 48 h
SK-OV-3 = test: Growth inhibition of human SKOV3 cells after 48 hrs by sulforhodamine B assay; conditions: SK-OV-3, 48 h
DU-145 = test: Growth inhibition of human DU145 cells after 48 hrs by sulforhodamine B assay; conditions: DU-145, 48 h
OVCAR-5 = test: Growth inhibition of human OVCAR5 cells after 48 hrs by sulforhodamine B assay; conditions: OVCAR-5, 48 h
KM12 = test: Growth inhibition of human KM12 cells after 48 hrs by sulforhodamine B assay; conditions: KM12, 48 h
HT-29 = test: Growth inhibition of human HT-29 cells after 48 hrs by sulforhodamine B assay; conditions: HT-29, 48 h
HCT-15 = test: Growth inhibition of human HCT15 cells after 48 hrs by sulforhodamine B assay; conditions: HCT-15, 48 h
NCI-H23 = test: Growth inhibition of human NCI-H23 cells after 48 hrs by sulforhodamine B assay; conditions: NCI-H23, 48 h
MKN-45 = test: Growth inhibition of human MKN45 cells after 48 hrs by sulforhodamine B assay; conditions: MKN-45, 48 h
MCF7 = test: Growth inhibition of human MCF7 cells after 48 hrs by sulforhodamine B assay; conditions: MCF7, 48 h
St-4 = test: Growth inhibition of human St-4 cells after 48 hrs by sulforhodamine B assay; conditions: St-4, 48 h
[5] = Growth inhibition of human RXF631L cells after 48 hrs by sulforhodamine B assay; conditions: RXF 631, 48 h
MKN-7 = test: Growth inhibition of human MKN7 cells after 48 hrs by sulforhodamine B assay; conditions: MKN-7, 48 h
DMS-114 = test: Growth inhibition of human DMS114 cells after 48 hrs by sulforhodamine B assay; conditions: DMS-114, 48 h
[6] = Growth inhibition of human BSY1 cells after 48 hrs by sulforhodamine B assay; conditions: BSY-1, 48 h
HCT-116 = test: Growth inhibition of human HCT116 cells after 48 hrs by sulforhodamine B assay; conditions: HCT-116, 48 h
LOX IMVI = test: Growth inhibition of human LOXIMVI cells after 48 hrs by sulforhodamine B assay
MKN-28 = test: Growth inhibition of human MKN28 cells after 48 hrs by sulforhodamine B assay; conditions: MKN-28, 48 h

GI50 (A549) [µM] | GI50 (NCI-H226) [µM] | GI50 (U-251) [µM] | GI50 (ACHN) [µM] | GI50 (NCI-H460) [µM] | GI50 (OVCAR-8) [µM] | GI50 (OVCAR-3) [µM] | GI50 (PC-3) [µM] | GI50 (MDA-MB-231) [µM] | GI50 (OVCAR-4) [µM] | SMILES | GI50 (SF-268) [µM] | GI50 [1] [µM] | GI50 (SNB-75) [µM] | GI50 (DMS-273) [µM] | GI50 [2] [µM] | GI50 (SF-539) [µM] | GI50 [3] [µM] | GI50 [4] [µM] | GI50 (SF-295) [µM] | GI50 (SNB-78) [µM] | also measured
12.9 | 40.7 | > 100 | 24 | 8.13 | 30.9 | 77.6 | 18.2 | 8.51 | 22.9 | CCCCCCCCCCCC[C@@H](O)[C@H]1CC[C@H]([C@H](O)CCCCCCCCCCNC(=O)c2ccnn2C)O1 | > 100 | 43.7 | 50.1 | 5.75 | > 100 | 3.72 | > 100 | 17 | 10 | > 100 | GI50 (NCI-H522): 1.41 µM; GI50 (MKN-74): 3.89 µM; GI50 (SK-OV-3): > 100 µM; GI50 (DU-145): > 100 µM; GI50 (OVCAR-5): > 100 µM; GI50 (KM12): > 100 µM; GI50 (HT-29): > 100 µM; GI50 (HCT-15): > 100 µM; GI50 (NCI-H23): 0.0525 µM; GI50 (MKN-45): 7.41 µM; GI50 (MCF7): 3.24 µM; GI50 (St-4): 18.2 µM; GI50 [5]: > 100 µM
30.9 | 52.5 | > 100 | 87.1 | > 100 | > 100 | > 100 | > 100 | 32.4 | 37.2 | CCCCCCCCCCCC[C@@H](O)[C@H]1CC[C@H]([C@H](O)CCCCCCCCCCCCc2ccnn2C)O1 | > 100 | > 100 | > 100 | 49 | > 100 | 37.2 | 79.4 | 69.2 | 24 | > 100 | GI50 (MKN-7): 6.17 µM; GI50 (DMS-114): 0.55 µM; GI50 [6]: 32.4 µM; GI50 (HCT-116): 9.12 µM; GI50 (LOX IMVI): > 100 µM; GI50 (NCI-H522): 3.8 µM; GI50 (MKN-74): 22.9 µM; GI50 (SK-OV-3): 77.6 µM; GI50 (DU-145): > 100 µM; GI50 (OVCAR-5): > 100 µM; GI50 (KM12): 70.8 µM; GI50 (HT-29): 75.9 µM; GI50 (HCT-15): > 100 µM; GI50 (MKN-28): 4.37 µM; GI50 (NCI-H23): 0.912 µM; GI50 (MKN-45): > 100 µM; GI50 (MCF7): 26.9 µM; GI50 (St-4): 64.6 µM; GI50 [5]: > 100 µM
> 100 | 75.9 | > 100 | > 100 | > 100 | > 100 | > 100 | > 100 | > 100 | > 100 | CCCCCCCCCCCC[C@@H](O)[C@H]1CC[C@H]([C@H](O)CCCCCCCCCCC(=O)Nc2ccnn2C)O1 | > 100 | > 100 | > 100 | > 100 | > 100 | > 100 | > 100 | > 100 | 57.5 | > 100 | GI50 (MKN-7): 20.9 µM; GI50 (DMS-114): 3.31 µM; GI50 [6]: 95.5 µM; GI50 (HCT-116): 64.6 µM; GI50 (LOX IMVI): > 100 µM; GI50 (NCI-H522): 28.8 µM; GI50 (MKN-74): > 100 µM; GI50 (SK-OV-3): > 100 µM; GI50 (DU-145): > 100 µM; GI50 (OVCAR-5): > 100 µM; GI50 (KM12): > 100 µM; GI50 (HT-29): > 100 µM; GI50 (HCT-15): > 100 µM; GI50 (MKN-28): 18.2 µM; GI50 (NCI-H23): 26.9 µM; GI50 (MKN-45): > 100 µM; GI50 (MCF7): > 100 µM; GI50 (St-4): > 100 µM; GI50 [5]: > 100 µM
